Data from patent US6653300B2, “Pyrazole compounds useful as protein kinase inhibitors” (Vertex Pharmaceuticals Incorporated, priority 2000, dated 2003).

How the values were obtained:
Assay type in all cases: biochemical
[1] = target: AKT-3 (Homo sapiens, UniProt Q9Y243); experiment: AKT inhibition assay (coupled enzyme assay); settings: 45 nM AKT, 170 μM ATP, 30° C.
Method: Compounds were screened for their ability to inhibit AKT using a standard coupled enzyme assay (Fox et al., Protein Sci., (1998) 7, 2249). Assays were carried out in a mixture of 100 mM HEPES 7.5, 10 mM MgCl2, 25 mM NaCl, 1 mM DTT and 1.5% DMSO. Final substrate concentrations in the assay were 170 μM ATP (Sigma Chemicals) and 200 μM peptide (RPRAATF, American Peptide, Sunnyvale, Calif.). Assays were carried out at 30° C. and 45 nM AKT. Final concentrations of the components of the coupled enzyme system were 2.5 mM phosphoenolpyruvate, 300 μM NADH, 30 μg/ML pyruvate kinase and 10 μg/ml lactate dehydrogenase.
An assay stock buffer solution was prepared containing all of the reagents listed above, with the exception of AKT, DTT, and the test compound of interest. 56 μl of the stock solution was placed in a 384 well plate followed by addition of 1 μl of 2 mM DMSO stock containing the test compound (final compound concentration 30 μM). The plate was preincubated for about 10 minutes at 30° C. and the reaction initiated by addition of 10 μl of enzyme (final concentration 45 nM) and 1 mM DTT. Rates of reaction were obtained using a BioRad Ultramark plate reader (Hercules, Calif.) over a 5 minute read time at 30° C.

[2] = target: T1, GSK-3β (AA 1-420) (Homo sapiens, UniProt P49841); experiment: Ki determination for the inhibition of GSK-3 (coupled enzyme system); settings: 20 μM ATP, 20 nM GSK-3β, 30° C.
T1 construct: GSK-3β (AA 1-420)
T1 sequence (P49841 whole entry, the tested form may be a part): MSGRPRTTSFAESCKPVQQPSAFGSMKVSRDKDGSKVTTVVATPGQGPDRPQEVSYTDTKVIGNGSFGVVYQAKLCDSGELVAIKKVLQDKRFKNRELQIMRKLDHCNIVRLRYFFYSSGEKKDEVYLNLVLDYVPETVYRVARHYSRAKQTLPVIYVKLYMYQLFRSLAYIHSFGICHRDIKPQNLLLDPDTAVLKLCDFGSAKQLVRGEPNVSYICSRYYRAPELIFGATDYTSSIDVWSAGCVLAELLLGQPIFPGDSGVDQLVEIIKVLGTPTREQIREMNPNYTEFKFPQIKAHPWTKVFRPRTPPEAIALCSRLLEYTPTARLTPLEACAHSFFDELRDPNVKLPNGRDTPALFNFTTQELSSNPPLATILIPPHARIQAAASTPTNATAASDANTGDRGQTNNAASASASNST
Method in brief: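 GSK-3β (AA 1-420, 20 nM) was run in a pyruvate kinase/LDH-coupled NADH assay in 100 mM HEPES pH 7.5, 10 mM MgCl2, 25 mM NaCl, 1 mM DTT, 1.5% DMSO, with 300 μM phosphopeptide substrate. Compound (0.002–30 μM) was preincubated 10 min at 30° C, then 20 μM ATP was added.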

[3] = target: T2, Aurora-2 (Homo sapiens, UniProt O14965); experiment: Ki determination for the inhibition of Aurora-2 (coupled enzyme assay); settings: 70 nM Aurora-2, 30° C.
T2 sequence (O14965 1-403): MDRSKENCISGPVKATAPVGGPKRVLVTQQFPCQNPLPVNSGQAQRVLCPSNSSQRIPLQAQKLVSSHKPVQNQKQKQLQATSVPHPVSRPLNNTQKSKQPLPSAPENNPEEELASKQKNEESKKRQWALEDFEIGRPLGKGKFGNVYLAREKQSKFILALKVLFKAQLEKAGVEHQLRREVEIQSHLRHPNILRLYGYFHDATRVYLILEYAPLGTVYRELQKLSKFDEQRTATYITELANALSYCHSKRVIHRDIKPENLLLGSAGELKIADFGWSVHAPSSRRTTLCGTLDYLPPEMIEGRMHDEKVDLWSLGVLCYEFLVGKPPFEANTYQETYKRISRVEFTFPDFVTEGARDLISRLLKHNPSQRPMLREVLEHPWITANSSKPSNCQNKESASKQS
Method in brief: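 Ki came from reaction rates plotted against inhibitor concentration, with rates taken as A340 decrease over 5 min at 30° C. Enzyme (70 nM final) was added after 10 min compound preincubation; stock buffer held […], 800 μM LRRASLG, PK/LDH coupling, pH 7.5.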

[4] = target: activated ERK2 (Homo sapiens, UniProt P28482); experiment: ERK inhibition assay (spectrophotometric coupled-enzyme assay); settings: 10 nM activated ERK2, 65 μM ATP, 30° C.; read-out: Ki values for ERK-2
Sequence of activated ERK2 (P28482 whole entry): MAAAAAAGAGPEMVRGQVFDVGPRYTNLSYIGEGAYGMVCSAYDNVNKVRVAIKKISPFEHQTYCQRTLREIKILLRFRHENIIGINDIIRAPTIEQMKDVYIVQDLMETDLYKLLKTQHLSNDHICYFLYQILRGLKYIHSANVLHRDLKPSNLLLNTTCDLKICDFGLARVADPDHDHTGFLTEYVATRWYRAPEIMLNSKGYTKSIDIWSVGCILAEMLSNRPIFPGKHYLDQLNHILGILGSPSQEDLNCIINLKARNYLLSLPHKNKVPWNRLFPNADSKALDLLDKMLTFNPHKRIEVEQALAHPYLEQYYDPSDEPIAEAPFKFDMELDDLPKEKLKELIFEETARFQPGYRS
Method: Compounds were assayed for the inhibition of ERK2 by a spectrophotometric coupled-enzyme assay (Fox et al (1998) Protein Sci 7, 2249).

Sequence of AKT-3 (Q9Y243 whole entry, species assumed): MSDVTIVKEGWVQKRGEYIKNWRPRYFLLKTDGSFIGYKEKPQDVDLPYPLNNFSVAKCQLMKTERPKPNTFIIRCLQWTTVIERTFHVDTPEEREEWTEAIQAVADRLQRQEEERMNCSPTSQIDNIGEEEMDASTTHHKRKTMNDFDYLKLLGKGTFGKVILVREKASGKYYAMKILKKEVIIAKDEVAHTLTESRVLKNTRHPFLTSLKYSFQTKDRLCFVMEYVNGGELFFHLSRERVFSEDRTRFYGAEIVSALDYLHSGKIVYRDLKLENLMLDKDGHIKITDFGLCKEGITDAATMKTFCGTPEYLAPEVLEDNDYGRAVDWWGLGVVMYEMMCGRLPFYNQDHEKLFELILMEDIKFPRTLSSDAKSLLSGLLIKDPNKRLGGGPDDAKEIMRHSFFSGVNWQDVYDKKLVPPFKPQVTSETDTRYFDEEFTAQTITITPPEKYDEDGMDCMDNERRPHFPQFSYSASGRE

Q: What does the source list for `c1ccc2c(Nc3cc(C4CC4)[nH]n3)nc(Nc3ccc4ncsc4c3)nc2c1` [IIc-32, [2-(Benzothiazol-6-ylamino)-quinazolin-4-yl]-(5-cyclopropyl-2H-pyrazol-3-yl)-amine]?
A: Ki [1]: 1 to 20 µM; Ki [2]: < 0.1 µM; Ki [3]: < 0.1 µM; Ki [4]: < 1 µM
